Results from US20250281474A1, “PHARMACEUTICAL COMPOSITION FOR TREATING COGNITIVE DECLINE OR FOR TREATING OVERWEIGHTNESS OR OBESITY” (University of the Ryukyus, priority 2021, published 2025).

Tests used:
[1] = Body weight monitoring of HFD-fed mice; assay type: in vivo, mouse
Protocol: Male C57BL/6J background and ob/ob mice were obtained from CLEA Japan Inc. and Japan SLC, respectively (3). The reason why male mice were selected is that it has been reported that male mice are susceptible to HFD, such as weight gain, metabolic changes, and disorder of learning and hippocampal synaptic plasticity. These animals were housed 3 to 4 per cage in a standard 12 hour dark-light cycle room at 25° C. in an environment with freely available food and water. All animal experiments were performed in accordance with the guidelines of the Animal Experiment Ethics Committee of the University of the Ryukyus. Time series changes in average food intake and average body weight were monitored in each condition.
Post-weaning (6 weeks) food intake and body weight of mice maintained on control diet (CD), high-fat diet (HFD), or HFD containing PER (Fycompa (trademark), Eisai, Japan) (5 mg/kg/day) was monitored up to 18 w (FIGS. 2, E and F). […]
Mice were then split into an HFD-fed group (n=5) and a PER-containing HFD-fed group (n=5) under the condition of the same feeding amount (refer to lower Panel of FIG. 25) and their body weights monitored.

CP-AMPAR = assay: Ca2+ imaging of hippocampal brain slices, AMPA+CTZ application, ob/ob mice; assay type: cell-based, mouse
[2] = tested on: AMPAR subunits GluA1-4 mRNA; assay: qRT-PCR of AMPAR/NMDAR subunits in hippocampal regions, Ca2+ permeability index; assay type: in vivo, mouse
Protocol: After preparing and collecting hippocampal slices, CA1, CA2, CA3, DG, and EC regions were separated from hippocampal slices using a dissection knife from […] background mice and ob/ob mice, respectively. The CA1, CA2, CA3, DG, and EC regions of mice were separated and immediately lysed in disposable homogenization tube BioMasher2 (trademark) (Nippi, Tokyo, Japan) using 0.5 mL of TRIzol RNA isolation reagent (Thermo Fisher Scientific, Wilmington, DE). Total RNA was individually extracted from each region according to the remaining protocol of the TRIzol RNA isolation reagent provided by the manufacturer (Thermo Fisher Scientific, Wilmington, DE). 1 μg of total RNA was reverse transcribed using PrimeScript RT Reagent Kit (Takara, Shiga, Japan). An aliquot of the obtained cDNA was diluted 1:10 and added to a master mix of TB Green Premix ExTaq (Takara, Shiga, Japan), and real-time PCR was performed using a 7500 Fast Real-Time PCR system (Applied Biosystems, Foster City, CA, USA) according to the manufacturer's instructions. The conditions for real-time PCR were as follows. 40 cycles of 95° C. for 30 seconds, then 95° C. for 5 seconds and 60° C. for 34 seconds. The fluorescence intensity was measured for each annealing step and the threshold cycle time was determined using 7500 software. In addition, relative expression levels of β-actin were normalized to respective controls (vehicle group). The relative expression level of the target gene in each sample was determined using a standard curve and further normalized to the expression level of R-actin of the same sample. The sequences of primers and probes for these genes are shown in Supplemental Table 2. The “ratio of GluA2 mRNA amount/(GluA1+GluA3+GluA4 mRNA amount” was used as a Ca^2+ permeability index.
GluA2 is edited at the Q/R site within the reentry M2 membrane loop region by adenosine deaminase (ADAR2), which acts on RNA type 2 involved in editing double-stranded RNA from adenosine (A) to inosine (I) (review, refer to 15, 16 and 17). Attempts were made to determine real-time quantitative reverse transcription polymerase chain reaction (qRT-PCR), subunit composition of AMPAR and NMDAR. Total RNA in hippocampal subregions (CA1, CA3, DG, EC) was separated, and quantitative analysis of mRNA of GluA1, GluA2, GluA3, and GluA4 for AMPAR, and GluN1, GluN2A, GluN2B, and GluN2C for NMDAR was performed by qRT-PCR. […] Based on the mRNA amount of each subunit, the ratio of GluA2 to other GluA subunits (FIG. 2B) was determined. The ratio was defined as a Ca^2+ permeability index.

NMDAR = assay: Ca2+ imaging of hippocampal brain slices, NMDA+glycine application, ob/ob mice; details: ob/ob mice, PER administration; p<0.05
HFD mice = assay: Golgi staining of hippocampus, HFD mice; assay type: in vivo, mouse; details: HFD mice with PER
Description: Coronal sections of mouse brains from Bregma −0.94 mm to Bregma −4.04 mm (5 mm wide, including the entire hippocampus from dorsal to ventral, medial to lateral) were fixed with 4% paraformaldehyde for 2 days, and then stained with the Golgi Cox staining system (FD Rapid GolgiStain™ Kit, MD 21041, USA). The impregnated tissues were cut into 100 μm sections and counterstained with crystal violet, and the total number of 15 μm spines on the apical dendrites of CA1 and DG and the percentage of morphologic spines (thin, stubby, mushroom) were examined using an Axio Observer Z1 (Carl Zeiss, Germany). Another set of paraformaldehyde-fixed 5 mm wide coronal sections of the brain, including the entire hippocampus, were processed using the passive CLARITY technique (PACT) (62) and examined through Lightsheet Z.1 (Carl Zeiss, Germany) using a 10× clear objective lens, and 3D images of Thy1-YFPH transgenic mice (the Jackson Laboratory, stock number: 003709, strain name: B6.Cg-Tg.(Thy1-YFP)16Jrs/J) (63, 64), HFD-fed mice, and whole hippocampus of the HFD-fed mice with PER treatment. were acquired respectively. Maximum intensity projection images were acquired along the Z dimension, time dimension, and channel dimension to create an output image with the pixel containing the maximum value for all images in the stack at a particular pixel position. […]

## N#Cc1ccccc1-c1cc(-c2ccccn2)cn(-c2ccccc2)c1=O [PER, 3-(2-cyanophenyl)-5-(2-pyridyl)-1-phenyl-1,2-dihydropyridine-2-one]
[1]; HFD containing PER 5 mg/kg/day from 6 weeks, effect started from 16 w compared to HFD
  body weight of HFD-fed mice: significant inhibition
[1]; PER-containing HFD-fed group n=5 vs HFD-fed group n=5
  body weight under the condition of the same feeding amount: significant body weight loss
CP-AMPAR; ob/ob mice slices, 100 μM, p<0.05 (FIG. 10-1A)
  inhibitory effect on CP-AMPAR in EC, CA1, CA2, CA3, DG: significant inhibitory effect
CP-AMPAR; ob/ob mice, PER administration, p<0.05
  Ca2+ permeability via CP-AMPAR in all hippocampal subregions: significant inactivation
[2]; GluA2 mRNA/(GluA1+GluA3+GluA4 mRNA), HFD-fed mice with PER, CA1, N=5
  Ca2+ permeability index CA1: 0.29 ± 0.11 (N = 5)
[2]; GluA2 mRNA/(GluA1+GluA3+GluA4 mRNA), HFD-fed mice with PER, CA3, N=5
  Ca2+ permeability index CA3: 0.26 ± 0.10 (N = 5)
[2]; GluA2 mRNA/(GluA1+GluA3+GluA4 mRNA), HFD-fed mice with PER, DG, N=5
  Ca2+ permeability index DG: 0.22 ± 0.06 (N = 5)
[2]; GluA2 mRNA/(GluA1+GluA3+GluA4 mRNA), HFD-fed mice with PER, EC, N=5
  Ca2+ permeability index EC: 0.30 ± 0.05(N = 5)
[2]; HFD-fed mice, PER administration, N=5
  Ca2+ permeability index via CA1, CA3, DG, EC (reduced by HFD): returned to CD-fed mouse levels
[2]; mice fed HFD with PER, p<0.05
  GluA2 mRNA expression in CA1 (qRT-PCR): significant increase
NMDAR
  NMDAR function in all hippocampal subregions: restoration
HFD mice
  spine maturity in DG: immature spines became mature
